Values of other authors as cited in patent US20250356483A1, “Quality Control Of In-Vitro Analysis Sample Output” (Sanofi, priority 2022, published 2025).

Tested on: liver cells
Conditions: CPZ@60 micro moles

## CN(C)CCCN1c2ccccc2Sc2ccc(Cl)cc21 [CPZ, Chlorpromazine]
  known toxic effect of reference compound (positive control): toxic to liver cells and triggers cholestasis
